Measurements reported in PubChem BioAssay AID1963429 (Molecular Pharmacology Branch, DTP, NCI, 2024).
pIC50: −log10 of the molar value.

Tested on: 126254-015-R-J1-PDC complex spheroid growth, % test/control
Assay: Anticancer human tumor 126254-015-R-J1-PDC patient-derived soft tissue sarcoma cell line growth inhibition [Asc]
Conditions: for pIC50: curve of first compound; for viability, T/C: stronger effect = lower value
Outline: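 Tumor cells were grown as multicellular spheroids with stromal HUVEC and mesenchymal stem cells and treated singly or in combination. Concentrations fell in half-log steps from the clinical Cmax, or from 10 microM where none was known.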

[1] = second compound 0.01 µM, first compound 0.00316 µM
[2] = second compound 0.01 µM, first compound 0.01 µM
[3] = second compound 0.01 µM, first compound 0.0316 µM
[4] = second compound 0.01 µM, first compound 0.1 µM
[5] = second compound 0.0316 µM, first compound 0.00316 µM
[6] = second compound 0.0316 µM, first compound 0.01 µM
[7] = second compound 0.0316 µM, first compound 0.0316 µM
[8] = second compound 0.0316 µM, first compound 0.1 µM
[9] = second compound 0.1 µM, first compound 0.00316 µM
[10] = second compound 0.1 µM, first compound 0.01 µM
[11] = second compound 0.1 µM, first compound 0.0316 µM
[12] = second compound 0.1 µM, first compound 0.1 µM
[13] = second compound 0.316 µM, first compound 0.00316 µM
[14] = second compound 0.316 µM, first compound 0.01 µM
[15] = second compound 0.316 µM, first compound 0.0316 µM
[16] = second compound 0.316 µM, first compound 0.1 µM
[17] = second compound 1 µM, first compound 0.00316 µM
[18] = second compound 1 µM, first compound 0.01 µM
[19] = second compound 1 µM, first compound 0.0316 µM
[20] = second compound 1 µM, first compound 0.1 µM
[21] = second compound 0.01 µM, first compound 0.316 µM
[22] = second compound 0.01 µM, first compound 1 µM
[23] = second compound 0.0316 µM, first compound 0.316 µM
[24] = second compound 0.0316 µM, first compound 1 µM
[25] = second compound 0.1 µM, first compound 0.316 µM
[26] = second compound 0.1 µM, first compound 1 µM
[27] = second compound 0.316 µM, first compound 0.316 µM
[28] = second compound 0.316 µM, first compound 1 µM
[29] = second compound 1 µM, first compound 0.316 µM
[30] = second compound 1 µM, first compound 1 µM
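Note: spheroids exposed to compound for seven days.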
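Throughout, for viability, T/C: 100% = DMSO vehicle control wells.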

Cc1nc(N2CCC3(CC2)COC(C)C3N)c(CO)nc1Sc1ccnc(N)c1Cl (stereo not given) + CCN1C(C(=O)NC23CCC(C(=O)O)(CC2)CC3)C(c2cccc(Cl)c2F)C2(C(=O)Nc3cc(Cl)ccc32)C12CCCCC2
pIC50 (second compound 0.03 µM): 5.84 | pIC50 (second compound 0.0949 µM): 6.12 | pIC50 (second compound 0.3 µM): 5.98 | pIC50 (second compound 0.949 µM): 6.11 | pIC50 (second compound 3 µM): 6.05 | viability, T/C (second compound 0.03 µM, first compound 0.00949 µM): 98.5% | viability, T/C (second compound 0.03 µM, first compound 0.03 µM): 87.4% | viability, T/C (second compound 0.03 µM, first compound 0.0949 µM): 81.1% | viability, T/C (second compound 0.03 µM, first compound 0.3 µM): 64.8% | viability, T/C (second compound 0.03 µM, first compound 0.949 µM): 59.5% | viability, T/C (second compound 0.03 µM, first compound 3 µM): 38.8% | viability, T/C (second compound 0.0949 µM, first compound 0.00949 µM): 90.7% | viability, T/C (second compound 0.0949 µM, first compound 0.03 µM): 95.8% | viability, T/C (second compound 0.0949 µM, first compound 0.0949 µM): 86.3% | viability, T/C (second compound 0.0949 µM, first compound 0.3 µM): 63.2% | viability, T/C (second compound 0.0949 µM, first compound 0.949 µM): 47.8% | viability, T/C (second compound 0.0949 µM, first compound 3 µM): 43% | viability, T/C (second compound 0.3 µM, first compound 0.00949 µM): 88.7% | viability, T/C (second compound 0.3 µM, first compound 0.03 µM): 93.5% | viability, T/C (second compound 0.3 µM, first compound 0.0949 µM): 69.9% | viability, T/C (second compound 0.3 µM, first compound 0.3 µM): 60.7% | viability, T/C (second compound 0.3 µM, first compound 0.949 µM): 54.7% | viability, T/C (second compound 0.3 µM, first compound 3 µM): 42.5% | viability, T/C (second compound 0.949 µM, first compound 0.00949 µM): 91.3% | viability, T/C (second compound 0.949 µM, first compound 0.03 µM): 91.2% | viability, T/C (second compound 0.949 µM, first compound 0.0949 µM): 76.8% | viability, T/C (second compound 0.949 µM, first compound 0.3 µM): 59.1% | viability, T/C (second compound 0.949 µM, first compound 0.949 µM): 51.2% | viability, T/C (second compound 0.949 µM, first compound 3 µM): 38.4% | viability, T/C (second compound 3 µM, first compound 0.00949 µM): 98.2% | viability, T/C (second compound 3 µM, first compound 0.03 µM): 87.8% | viability, T/C (second compound 3 µM, first compound 0.0949 µM): 85% | viability, T/C (second compound 3 µM, first compound 0.3 µM): 63.8% | viability, T/C (second compound 3 µM, first compound 0.949 µM): 49.6% | viability, T/C (second compound 3 µM, first compound 3 µM): 39.2%

Cn1ncnc1[C@H]1c2n[nH]c(=O)c3cc(F)cc(c23)N[C@@H]1c1ccc(F)cc1 + CNC(C)C(=O)NC1CN(S(=O)(=O)c2cccc(S(=O)(=O)N3CCC4CCC(C(=O)NC(c5ccccc5)c5ccccc5)N4C(=O)C(NC(=O)C(C)NC)C3)c2)CCC2CCC(C(=O)NC(c3ccccc3)c3ccccc3)N2C1=O
pIC50 (second compound 0.01 µM): < 7.00 | pIC50 (second compound 0.0316 µM): < 7.00 | pIC50 (second compound 0.1 µM): 7.25 | pIC50 (second compound 0.316 µM): 7.88 | pIC50 (second compound 1 µM): 8.00 | viability, T/C (second compound 0.01 µM, first compound 0.000316 µM): 82.1% | viability, T/C (second compound 0.01 µM, first compound 0.001 µM): 82.3% | viability, T/C [1]: 78.2% | viability, T/C [2]: 79.6% | viability, T/C [3]: 77.3% | viability, T/C [4]: 63.1% | viability, T/C (second compound 0.0316 µM, first compound 0.000316 µM): 71% | viability, T/C (second compound 0.0316 µM, first compound 0.001 µM): 77.3% | viability, T/C [5]: 71% | viability, T/C [6]: 61.4% | viability, T/C [7]: 56.1% | viability, T/C [8]: 58.1% | viability, T/C (second compound 0.1 µM, first compound 0.000316 µM): 67.3% | viability, T/C (second compound 0.1 µM, first compound 0.001 µM): 67.4% | viability, T/C [9]: 60.5% | viability, T/C [10]: 55.8% | viability, T/C [11]: 58.4% | viability, T/C [12]: 44.7% | viability, T/C (second compound 0.316 µM, first compound 0.000316 µM): 56% | viability, T/C (second compound 0.316 µM, first compound 0.001 µM): 70.9% | viability, T/C [13]: 59.2% | viability, T/C [14]: 51.8% | viability, T/C [15]: 44.4% | viability, T/C [16]: 41% | viability, T/C (second compound 1 µM, first compound 0.000316 µM): 53.2% | viability, T/C (second compound 1 µM, first compound 0.001 µM): 63.7% | viability, T/C [17]: 56.2% | viability, T/C [18]: 42.4% | viability, T/C [19]: 46.8% | viability, T/C [20]: 44.1%

O=C(c1cc(Cc2n[nH]c(=O)c3ccccc23)ccc1F)N1CCN(C(=O)C2CC2)CC1 + CNC(C)C(=O)NC1CN(S(=O)(=O)c2cccc(S(=O)(=O)N3CCC4CCC(C(=O)NC(c5ccccc5)c5ccccc5)N4C(=O)C(NC(=O)C(C)NC)C3)c2)CCC2CCC(C(=O)NC(c3ccccc3)c3ccccc3)N2C1=O
pIC50 (second compound 0.01 µM): 5.04 | pIC50 (second compound 0.0316 µM): 5.21 | pIC50 (second compound 0.1 µM): 5.56 | pIC50 (second compound 0.316 µM): 5.44 | pIC50 (second compound 1 µM): 5.73 | viability, T/C [3]: 97.3% | viability, T/C [4]: 89.8% | viability, T/C [21]: 94.5% | viability, T/C [22]: 82.8% | viability, T/C (second compound 0.01 µM, first compound 3.16 µM): 77.6% | viability, T/C (second compound 0.01 µM, first compound 10 µM): 47.1% | viability, T/C [7]: 85.1% | viability, T/C [8]: 82.4% | viability, T/C [23]: 78.2% | viability, T/C [24]: 80.2% | viability, T/C (second compound 0.0316 µM, first compound 3.16 µM): 55.1% | viability, T/C (second compound 0.0316 µM, first compound 10 µM): 46.3% | viability, T/C [11]: 66.2% | viability, T/C [12]: 77.8% | viability, T/C [25]: 75.4% | viability, T/C [26]: 59.6% | viability, T/C (second compound 0.1 µM, first compound 3.16 µM): 49.8% | viability, T/C (second compound 0.1 µM, first compound 10 µM): 27.4% | viability, T/C [15]: 62.2% | viability, T/C [16]: 56.4% | viability, T/C [27]: 59.7% | viability, T/C [28]: 57.8% | viability, T/C (second compound 0.316 µM, first compound 3.16 µM): 52.9% | viability, T/C (second compound 0.316 µM, first compound 10 µM): 29% | viability, T/C [19]: 54.7% | viability, T/C [20]: 62.2% | viability, T/C [29]: 61.4% | viability, T/C [30]: 54.9% | viability, T/C (second compound 1 µM, first compound 3.16 µM): 44.9% | viability, T/C (second compound 1 µM, first compound 10 µM): 22.2%

O=C(c1ccc(F)c(F)c1Nc1ccc(I)cc1F)N1CC(O)([C@@H]2CCCCN2)C1 + CNC(C)C(=O)NC1CN(S(=O)(=O)c2cccc(S(=O)(=O)N3CCC4CCC(C(=O)NC(c5ccccc5)c5ccccc5)N4C(=O)C(NC(=O)C(C)NC)C3)c2)CCC2CCC(C(=O)NC(c3ccccc3)c3ccccc3)N2C1=O
pIC50 (second compound 0.01 µM): 6.23 | pIC50 (second compound 0.0316 µM): 6.42 | pIC50 (second compound 0.1 µM): 6.79 | pIC50 (second compound 0.316 µM): 7.06 | pIC50 (second compound 1 µM): 7.07 | viability, T/C [1]: 82.4% | viability, T/C [2]: 87.6% | viability, T/C [3]: 79.8% | viability, T/C [4]: 90.9% | viability, T/C [21]: 66.9% | viability, T/C [22]: 36% | viability, T/C [5]: 84.2% | viability, T/C [6]: 72.7% | viability, T/C [7]: 67.9% | viability, T/C [8]: 67.2% | viability, T/C [23]: 55.1% | viability, T/C [24]: 33% | viability, T/C [9]: 59.7% | viability, T/C [10]: 67.3% | viability, T/C [11]: 67.5% | viability, T/C [12]: 59.6% | viability, T/C [25]: 37% | viability, T/C [26]: 28.1% | viability, T/C [13]: 62.5% | viability, T/C [14]: 62.8% | viability, T/C [15]: 54.6% | viability, T/C [16]: 51.3% | viability, T/C [27]: 30.1% | viability, T/C [28]: 19.1% | viability, T/C [17]: 56.9% | viability, T/C [18]: 54.1% | viability, T/C [19]: 54.3% | viability, T/C [20]: 49.3% | viability, T/C [29]: 27% | viability, T/C [30]: 21.1%
